Experimental data from patent US12522583B2, “Benzimidazole derivatives and aza-benzimidazole derivatives as Janus kinase 2 inhibitors and uses thereof” (Dana-Farber Cancer Institute, Inc., priority 2018, dated 2026).

Tests used:
Assay in all cases: KINOMEscan
Assay type in all cases: binding
Conditions in all cases: read-out: percent control
INSRR = INSRR (Homo sapiens (Human), UniProt P14616)
Text: (§1) Example 2. In Vitro Kinase Selectivity Profiling of the Compounds of the Present Disclosure

BMPR1A = BMPR1A (Homo sapiens (Human), UniProt P36894)
Text: as §1

CDK4-cyclinD1 = CDK4-cyclinD1 (Homo sapiens (Human), UniProt P11802)
Text: as §1

EPHA7 = EPHA7 (Homo sapiens (Human), UniProt Q15375)
Text: as §1

MAP3K3 = MAP3K3 (Homo sapiens (Human), UniProt Q99759)
Text: as §1

EPHA8 = EPHA8 (Homo sapiens (Human), UniProt P29322)
Text: as §1

CIT = CIT (Homo sapiens (Human), UniProt O14578)
Text: as §1

PAK3 = PAK3 (Homo sapiens (Human), UniProt O75914)
Text: as §1

[1] = molecular target: RSK3(Kin.Dom.1-N-terminal) (Homo sapiens (Human), UniProt Q15349)
Text: as §1

CDKL2 = CDKL2 (Homo sapiens (Human), UniProt Q92772)
Text: as §1

CDK5 = CDK5 (Homo sapiens (Human), UniProt Q00535)
Text: as §1

MUSK = MUSK (Homo sapiens (Human), UniProt O15146)
Text: as §1

[2] = molecular target: ABL1(Q252H)-nonphosphorylated (Homo sapiens (Human), UniProt P00519, Q252H)
Text: as §1

PIKFYVE = PIKFYVE (Homo sapiens (Human), UniProt Q9Y2I7)
Text: as §1

GCN2(Kin.Dom.2, S808G) = GCN2(Kin.Dom.2, S808G) (Homo sapiens, UniProt Q9P2K8, S808G)
Text: as §1

ASK1 = ASK1 (Homo sapiens (Human), UniProt Q99683)
Text: as §1

EGFR(G719C) = EGFR(G719C) (Homo sapiens (Human), UniProt P00533, G719C)
Text: as §1

MAPKAPK2 = MAPKAPK2 (Homo sapiens (Human), UniProt P49137)
Text: as §1

ERBB4 = ERBB4 (Homo sapiens (Human), UniProt Q15303)
Text: as §1

MARK3 = MARK3 (Homo sapiens (Human), UniProt P27448)
Text: as §1

FLT3(D835H) = FLT3(D835H) (Homo sapiens (Human), UniProt P36888, D835H)
Text: as §1

IKK-beta = IKK-beta (Homo sapiens (Human), UniProt O14920)
Text: as §1

MAP4K5 = MAP4K5 (Homo sapiens (Human), UniProt Q9Y4K4)
Text: as §1

PIK3CA(M1043I) = PIK3CA(M1043I) (Homo sapiens (Human), UniProt P42336, M1043I)
Text: as §1

HIPK3 = HIPK3 (Homo sapiens (Human), UniProt Q9H422)
Text: as §1

PIP5K2C = PIP5K2C (Homo sapiens (Human), UniProt Q8TBX8)
Text: as §1

PIK3CA(H1047L) = PIK3CA(H1047L) (Homo sapiens (Human), UniProt P42336, H1047L)
Text: as §1

FYN = FYN (Homo sapiens (Human), UniProt P06241)
Text: as §1

FLT3 = FLT3 (Homo sapiens (Human), UniProt P36888)
Text: as §1

LOK = LOK (Homo sapiens (Human), UniProt O94804)
Text: as §1

CAMK1G = CAMK1G (Homo sapiens (Human), UniProt Q96NX5)
Text: as §1

PIM3 = PIM3 (Homo sapiens (Human), UniProt Q86V86)
Text: as §1

HASPIN = HASPIN (Homo sapiens (Human), UniProt Q8TF76)
Text: as §1

MLCK = MLCK (Homo sapiens (Human), UniProt Q32MK0)
Text: as §1

CDKL1 = CDKL1 (Homo sapiens (Human), UniProt Q00532)
Text: as §1

ZAP70 = ZAP70 (Homo sapiens (Human), UniProt P43403)
Text: as §1

CAMK1D = CAMK1D (Homo sapiens (Human), UniProt Q8IU85)
Text: as §1

CDK9 = CDK9 (Homo sapiens (Human), UniProt P50750)
Text: as §1

ERBB2 = ERBB2 (Homo sapiens (Human), UniProt P04626)
Text: as §1

CSK = CSK (Homo sapiens (Human), UniProt P41240)
Text: as §1

Chain of ERBB2 (P04626 23-1255): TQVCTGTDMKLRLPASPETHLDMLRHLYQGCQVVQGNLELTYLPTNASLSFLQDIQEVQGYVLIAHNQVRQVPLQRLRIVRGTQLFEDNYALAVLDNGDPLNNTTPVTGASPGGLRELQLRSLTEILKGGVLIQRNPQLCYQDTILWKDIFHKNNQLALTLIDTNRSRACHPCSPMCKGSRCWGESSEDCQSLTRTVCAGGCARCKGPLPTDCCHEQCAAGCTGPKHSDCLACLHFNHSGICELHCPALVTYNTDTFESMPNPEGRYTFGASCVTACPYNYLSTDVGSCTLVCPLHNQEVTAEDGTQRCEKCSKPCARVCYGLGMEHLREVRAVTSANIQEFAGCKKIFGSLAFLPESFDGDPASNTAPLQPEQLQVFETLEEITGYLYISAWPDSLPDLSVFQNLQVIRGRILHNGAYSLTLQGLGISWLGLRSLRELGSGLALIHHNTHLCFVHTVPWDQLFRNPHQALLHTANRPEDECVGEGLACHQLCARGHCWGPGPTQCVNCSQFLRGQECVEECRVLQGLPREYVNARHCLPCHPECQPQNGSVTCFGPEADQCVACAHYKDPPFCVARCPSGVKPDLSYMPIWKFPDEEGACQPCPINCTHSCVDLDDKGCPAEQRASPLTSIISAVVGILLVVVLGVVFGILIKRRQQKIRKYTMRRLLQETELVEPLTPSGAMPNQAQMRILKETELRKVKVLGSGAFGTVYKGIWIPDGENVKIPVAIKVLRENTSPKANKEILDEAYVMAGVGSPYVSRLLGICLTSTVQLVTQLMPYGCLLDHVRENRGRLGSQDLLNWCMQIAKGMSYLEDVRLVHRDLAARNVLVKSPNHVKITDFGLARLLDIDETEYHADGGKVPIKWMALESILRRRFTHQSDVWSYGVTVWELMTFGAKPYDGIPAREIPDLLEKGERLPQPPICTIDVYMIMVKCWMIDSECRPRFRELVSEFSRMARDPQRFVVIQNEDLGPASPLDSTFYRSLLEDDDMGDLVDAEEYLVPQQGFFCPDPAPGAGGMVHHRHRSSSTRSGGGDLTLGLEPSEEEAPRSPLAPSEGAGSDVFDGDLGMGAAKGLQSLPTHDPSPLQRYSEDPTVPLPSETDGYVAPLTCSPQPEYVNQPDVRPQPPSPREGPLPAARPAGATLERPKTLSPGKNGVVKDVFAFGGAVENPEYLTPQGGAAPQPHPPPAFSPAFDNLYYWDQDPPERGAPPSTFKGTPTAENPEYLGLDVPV
Chain of IKK-beta (O14920 whole entry): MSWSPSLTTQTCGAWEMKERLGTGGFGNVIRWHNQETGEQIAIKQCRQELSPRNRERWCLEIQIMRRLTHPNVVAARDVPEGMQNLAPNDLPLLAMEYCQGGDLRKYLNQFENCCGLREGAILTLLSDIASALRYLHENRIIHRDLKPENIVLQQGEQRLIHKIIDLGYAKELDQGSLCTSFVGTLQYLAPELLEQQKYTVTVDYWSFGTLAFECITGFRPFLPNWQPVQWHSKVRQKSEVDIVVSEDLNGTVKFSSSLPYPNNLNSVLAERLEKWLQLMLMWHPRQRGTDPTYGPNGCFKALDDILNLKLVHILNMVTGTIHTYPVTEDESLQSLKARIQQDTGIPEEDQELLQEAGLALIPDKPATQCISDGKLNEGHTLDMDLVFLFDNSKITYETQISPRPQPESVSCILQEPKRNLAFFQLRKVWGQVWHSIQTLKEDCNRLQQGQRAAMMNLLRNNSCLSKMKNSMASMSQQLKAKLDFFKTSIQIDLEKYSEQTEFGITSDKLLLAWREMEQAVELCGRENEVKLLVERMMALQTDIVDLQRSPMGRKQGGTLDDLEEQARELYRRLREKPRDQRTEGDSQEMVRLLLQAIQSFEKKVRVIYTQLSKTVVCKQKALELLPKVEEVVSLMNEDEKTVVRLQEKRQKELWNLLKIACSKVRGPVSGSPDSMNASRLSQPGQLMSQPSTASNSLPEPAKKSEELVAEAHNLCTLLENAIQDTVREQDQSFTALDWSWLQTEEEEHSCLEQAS
Chain of FYN (P06241 whole entry): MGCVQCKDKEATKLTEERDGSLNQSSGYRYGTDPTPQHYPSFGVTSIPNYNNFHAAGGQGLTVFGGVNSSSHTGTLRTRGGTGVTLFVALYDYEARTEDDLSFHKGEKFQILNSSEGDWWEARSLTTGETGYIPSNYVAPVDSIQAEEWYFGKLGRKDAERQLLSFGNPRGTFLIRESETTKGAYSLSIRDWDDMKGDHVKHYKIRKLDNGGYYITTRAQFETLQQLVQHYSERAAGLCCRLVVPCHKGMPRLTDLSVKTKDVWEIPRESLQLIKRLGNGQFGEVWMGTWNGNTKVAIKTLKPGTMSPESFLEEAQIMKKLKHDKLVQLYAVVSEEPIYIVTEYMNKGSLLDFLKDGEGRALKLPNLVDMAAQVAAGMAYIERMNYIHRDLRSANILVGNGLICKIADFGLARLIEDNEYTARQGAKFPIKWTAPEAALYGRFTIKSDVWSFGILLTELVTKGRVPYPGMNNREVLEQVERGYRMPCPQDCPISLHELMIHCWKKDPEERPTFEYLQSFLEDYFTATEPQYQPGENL
Chain of HIPK3 (Q9H422 whole entry): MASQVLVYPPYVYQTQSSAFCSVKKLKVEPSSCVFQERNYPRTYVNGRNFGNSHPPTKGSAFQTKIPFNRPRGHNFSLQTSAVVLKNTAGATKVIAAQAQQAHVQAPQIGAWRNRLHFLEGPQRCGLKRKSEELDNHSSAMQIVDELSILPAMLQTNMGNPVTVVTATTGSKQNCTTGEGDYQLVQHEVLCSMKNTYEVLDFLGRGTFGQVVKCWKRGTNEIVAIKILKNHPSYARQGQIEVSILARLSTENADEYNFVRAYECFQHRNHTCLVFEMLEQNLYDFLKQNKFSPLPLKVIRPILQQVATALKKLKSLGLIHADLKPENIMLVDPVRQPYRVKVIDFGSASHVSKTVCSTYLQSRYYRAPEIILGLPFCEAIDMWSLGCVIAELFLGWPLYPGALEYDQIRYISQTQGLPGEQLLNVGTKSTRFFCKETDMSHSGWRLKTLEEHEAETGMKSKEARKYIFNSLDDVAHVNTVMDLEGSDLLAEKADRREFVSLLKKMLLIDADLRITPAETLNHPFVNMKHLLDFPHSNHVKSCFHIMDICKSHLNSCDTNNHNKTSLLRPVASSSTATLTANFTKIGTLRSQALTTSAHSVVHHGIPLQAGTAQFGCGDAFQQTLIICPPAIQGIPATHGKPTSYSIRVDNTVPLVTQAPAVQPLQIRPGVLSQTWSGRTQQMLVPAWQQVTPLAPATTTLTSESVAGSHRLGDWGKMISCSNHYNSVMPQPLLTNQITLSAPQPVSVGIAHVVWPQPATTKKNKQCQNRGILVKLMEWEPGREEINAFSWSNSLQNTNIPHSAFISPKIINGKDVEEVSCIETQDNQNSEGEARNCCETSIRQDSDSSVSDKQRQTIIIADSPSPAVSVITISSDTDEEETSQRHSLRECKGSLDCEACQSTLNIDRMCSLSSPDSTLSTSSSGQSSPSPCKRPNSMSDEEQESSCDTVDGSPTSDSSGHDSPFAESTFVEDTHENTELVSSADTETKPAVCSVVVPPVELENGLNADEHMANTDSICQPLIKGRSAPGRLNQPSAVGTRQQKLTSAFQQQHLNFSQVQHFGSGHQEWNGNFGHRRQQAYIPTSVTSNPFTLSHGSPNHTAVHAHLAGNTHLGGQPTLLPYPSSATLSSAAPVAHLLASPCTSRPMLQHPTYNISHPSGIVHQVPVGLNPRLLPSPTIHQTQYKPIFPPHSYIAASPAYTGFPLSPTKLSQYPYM
Chain of EPHA7 (Q15375 28-998): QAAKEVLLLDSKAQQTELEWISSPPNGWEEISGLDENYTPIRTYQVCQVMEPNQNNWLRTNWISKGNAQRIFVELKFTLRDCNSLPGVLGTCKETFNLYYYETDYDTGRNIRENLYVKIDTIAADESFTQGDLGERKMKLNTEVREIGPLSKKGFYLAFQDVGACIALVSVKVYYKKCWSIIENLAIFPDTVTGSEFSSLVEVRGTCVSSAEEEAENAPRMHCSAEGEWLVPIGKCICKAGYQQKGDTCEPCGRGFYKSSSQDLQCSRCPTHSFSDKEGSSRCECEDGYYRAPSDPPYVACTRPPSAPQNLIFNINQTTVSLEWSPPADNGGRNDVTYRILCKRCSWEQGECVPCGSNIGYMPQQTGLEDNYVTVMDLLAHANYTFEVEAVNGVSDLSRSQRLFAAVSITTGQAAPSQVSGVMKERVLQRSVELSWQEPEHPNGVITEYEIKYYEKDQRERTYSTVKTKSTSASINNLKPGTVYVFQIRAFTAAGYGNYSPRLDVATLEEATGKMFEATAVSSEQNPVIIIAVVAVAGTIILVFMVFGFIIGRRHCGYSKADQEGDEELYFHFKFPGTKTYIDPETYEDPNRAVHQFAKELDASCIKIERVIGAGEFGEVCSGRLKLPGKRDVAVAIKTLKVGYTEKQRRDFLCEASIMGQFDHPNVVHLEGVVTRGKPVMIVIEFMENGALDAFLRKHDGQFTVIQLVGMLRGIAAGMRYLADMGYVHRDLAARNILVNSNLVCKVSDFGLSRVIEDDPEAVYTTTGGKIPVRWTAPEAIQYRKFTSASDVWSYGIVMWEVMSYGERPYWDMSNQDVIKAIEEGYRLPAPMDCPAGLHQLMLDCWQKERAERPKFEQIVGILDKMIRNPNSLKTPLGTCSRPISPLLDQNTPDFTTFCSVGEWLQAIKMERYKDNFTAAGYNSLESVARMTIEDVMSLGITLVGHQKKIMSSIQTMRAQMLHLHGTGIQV
Chain of CAMK1D (Q8IU85 whole entry): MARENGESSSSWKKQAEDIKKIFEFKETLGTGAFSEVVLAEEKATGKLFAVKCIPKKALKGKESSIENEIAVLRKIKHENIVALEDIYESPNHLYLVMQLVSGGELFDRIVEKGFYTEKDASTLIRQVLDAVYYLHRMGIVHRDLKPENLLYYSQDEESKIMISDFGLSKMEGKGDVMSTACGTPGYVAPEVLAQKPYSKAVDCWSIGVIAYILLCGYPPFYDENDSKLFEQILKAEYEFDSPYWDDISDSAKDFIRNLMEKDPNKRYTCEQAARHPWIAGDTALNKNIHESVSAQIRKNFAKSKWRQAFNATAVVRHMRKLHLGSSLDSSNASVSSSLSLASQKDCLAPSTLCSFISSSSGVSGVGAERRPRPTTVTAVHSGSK

SMILES	remaining binding at 1 µM (INSRR) [%]	remaining binding at 1 µM (BMPR1A) [%]	remaining binding at 1 µM (CDK4-cyclinD1) [%]	remaining binding at 1 µM (EPHA7) [%]	remaining binding at 1 µM (MAP3K3) [%]	remaining binding at 1 µM (EPHA8) [%]	remaining binding at 1 µM (CIT) [%]	remaining binding at 1 µM (PAK3) [%]	remaining binding at 1 µM [1] [%]	remaining binding at 1 µM (CDKL2) [%]	remaining binding at 1 µM (CDK5) [%]	remaining binding at 1 µM (MUSK) [%]	remaining binding at 1 µM [2] [%]	remaining binding at 1 µM (PIKFYVE) [%]	remaining binding at 1 µM (GCN2(Kin.Dom.2, S808G)) [%]	remaining binding at 1 µM (ASK1) [%]	remaining binding at 1 µM (EGFR(G719C)) [%]	remaining binding at 1 µM (MAPKAPK2) [%]	remaining binding at 1 µM (ERBB4) [%]	remaining binding at 1 µM (MARK3) [%]	other results
CCN1CCN(Cc2ccc(Nc3nc4ccc(Oc5ccnc(NC(C)=O)c5)cc4n3C)cc2C(F)(F)F)CC1 [Compound I-2]	5.3	100	85	93	16	43	90	54	70	1.9	97	100	0	80	28	77	97	78	84	87	remaining binding at 1 µM (FLT3(D835H)): 47%; remaining binding at 1 µM (IKK-beta): 98%; remaining binding at 1 µM (MAP4K5): 89%; remaining binding at 1 µM (PIK3CA(M1043I)): 78%; remaining binding at 1 µM (HIPK3): 85%; remaining binding at 1 µM (PIP5K2C): 96%; remaining binding at 1 µM (PIK3CA(H1047L)): 73%; remaining binding at 1 µM (FYN): 80%; remaining binding at 1 µM (FLT3): 15%; remaining binding at 1 µM (LOK): 21%; remaining binding at 1 µM (CAMK1G): 100%; remaining binding at 1 µM (PIM3): 93%; remaining binding at 1 µM (HASPIN): 100%; remaining binding at 1 µM (MLCK): 100%; remaining binding at 1 µM (CDKL1): 84%; remaining binding at 1 µM (ZAP70): 100%; remaining binding at 1 µM (CAMK1D): 85%; remaining binding at 1 µM (CDK9): 100%; remaining binding at 1 µM (ERBB2): 95%; remaining binding at 1 µM (CSK): 63%
CCN1CCN(Cc2ccc(Nc3nc4ccc(Oc5ccnc(NC(C)=O)c5)c(C)c4n3C)cc2C(F)(F)F)CC1 [Compound I-6, N-(4-(2-(4-((4-ethylpiperazin-1-yl)methyl)-3-(trifluoromethyl)phenylamino)-1,7-dimethyl-1H-benzo[d]imidazol-6-yloxy)pyridin-2-yl)acetamide]	5.8	98	83	99	0.95	2.5	79	77	100	0.5	90	72	1.9	93	44	97	94	100	94	86	remaining binding at 1 µM (FLT3(D835H)): 24%; remaining binding at 1 µM (IKK-beta): 72%; remaining binding at 1 µM (MAP4K5): 88%; remaining binding at 1 µM (PIK3CA(M1043I)): 100%; remaining binding at 1 µM (HIPK3): 76%; remaining binding at 1 µM (PIP5K2C): 93%; remaining binding at 1 µM (PIK3CA(H1047L)): 85%; remaining binding at 1 µM (FYN): 49%; remaining binding at 1 µM (FLT3): 1%; remaining binding at 1 µM (LOK): 0.45%; remaining binding at 1 µM (CAMK1G): 99%; remaining binding at 1 µM (PIM3): 86%; remaining binding at 1 µM (HASPIN): 93%; remaining binding at 1 µM (MLCK): 97%; remaining binding at 1 µM (CDKL1): 87%; remaining binding at 1 µM (ZAP70): 99%; remaining binding at 1 µM (CAMK1D): 100%; remaining binding at 1 µM (CDK9): 96%; remaining binding at 1 µM (ERBB2): 100%; remaining binding at 1 µM (CSK): 87%
